The values that follow come from ChEMBL document CHEMBL5329222, “Discovery of novel tubulin CBSI (R)-9k from the indanone scaffold for the treatment of colorectal cancer” (RSC Med Chem, 2023).

Active and inactive are the calls of the source. No cut-off for these calls is given here. Some results are limits rather than exact numbers.

The test system of data set [1] is HeLa. Briefly: Antiproliferative activity against human HeLa cells assessed as inhibition of cell growth incubated for 1.5 hrs by CCK-8 assay. It is filed as functional, cell-based.
Data set [2] has as its system A2780. Briefly: Antiproliferative activity against human A2780 cells assessed as inhibition of cell growth incubated for 1.5 hrs by CCK-8 assay. It is filed as functional, cell-based. Background: Tetrazolium dyes change colour on reduction, which living cells bring about.
Data set [3] relates to HCT-116. Briefly: Antiproliferative activity against human HCT-116 cells assessed as inhibition of cell growth incubated for 1.5 hrs by CCK-8 assay. It is filed as functional, cell-based. The settings on record: HCT-116, 1.5 h.
For another data set, the target named is Tubulin. Briefly: Inhibition of tubulin (unknown origin) polymerization. It is filed as protein-complex assay, Homo sapiens.
For the next data set, the system named is MCF7. Briefly: Antiproliferative activity against human MCF7 cells assessed as inhibition of cell growth incubated for 24 hrs by MTT assay. Type of data set: functional, cell-based. To be noted: MCF7, 24 h.
In a further data set the test system is MDA-MB-231. Briefly: Antiproliferative activity against human MDA-MB-231 cells assessed as inhibition of cell growth incubated for 24 hrs by MTT assay. It is filed as functional, cell-based. To be noted: MDA-MB-231, 24 h.
In another data set the target is Estrogen receptor beta (Homo sapiens, UniProt Q92731). Briefly: Binding affinity to human recombinant ERbeta incubated for 20 mins.
The subject of data set [4] is HCT-116. Briefly: Potency index, ratio of 5-fluorouracil IC50 to test compound IC50 for antiproliferative activity against human HCT-116 cells assessed as inhibition of cell growth. Type of data set: functional.
The next data set deals with SW480. Briefly: Growth inhibition of human SW480 cells incubated for 1.5 hrs by MTT assay. It is filed as functional, cell-based.
The subject of a further data set is CT26. Briefly: Growth inhibition of CT26 cells incubated for 1.5 hrs by MTT assay. It is filed as functional, cell-based. The settings on record: Mus musculus, CT26, 1.5 h.
Data set [5] deals with HeLa. Briefly: Potency index, ratio of 5-fluorouracil IC50 to test compound IC50 for antiproliferative activity against human HeLa cells assessed as inhibition of cell growth. It is filed as functional.
The subject of data set [6] is A2780. Briefly: Potency index, ratio of 5-fluorouracil IC50 to test compound IC50 for antiproliferative activity against human A2780 cells assessed as inhibition of cell growth. It is filed as functional.
The subject of data set [7] is HeLa. Briefly: Growth inhibition of human HeLa cells incubated for 1.5 hrs by MTT assay. Type of data set: functional, cell-based.
The test system of data set [8] is HCT-116. Briefly: Growth inhibition of human HCT-116 cells incubated for 1.5 hrs by MTT assay. It is filed as functional, cell-based. To be noted: HCT-116, 1.5 h.
Data set [9] deals with A2780. Briefly: Growth inhibition of human A2780 cells incubated for 1.5 hrs by MTT assay. It is filed as functional, cell-based. The settings on record: A2780, 1.5 h.
A short description of data set [10]: Cytotoxicity against HEK293 cells assessed as inhibition of cell growth incubated 1.5 hrs by MTT assay. Type of data set: toxicity, cell-based. To be noted: human.
Data set [11] can be described thus: Cytotoxicity against human HUVEC cells assessed as inhibition of cell growth incubated 1.5 hrs by MTT assay. It is filed as toxicity, cell-based.
Data set [12] deals with Tubulin beta (Homo sapiens) (UniProt P68371+Q9H4B7+Q13509+P04350+Q3ZCM7+P07437+Q13885+Q9BVA1+Q9BUF5+A6NNZ2). Briefly: Binding affinity to beta-tubulin colchicine binding site in human HCT-116 cells assessed as inhibition of EBI-beta-tubulin adduct band formation at 5 to 25 uM preincubated for 2 hrs followed by EBI addition measured after 1.5 hrs by EBI competition based Western blotting analysis. It is filed as cell-based. To be noted: dose 5-25 µM, time 3.5 hrs. (A western blot detects proteins with antibodies after separation by electrophoresis.)

Data set [13] deals with HCT-116. Briefly: Inhibition of colony formation in human HCT-116 cells at 0.1 uM incubated for 48 hrs by crystal violet staining based analysis. Type of data set: functional.

Chain of Estrogen receptor beta (Q92731 whole entry): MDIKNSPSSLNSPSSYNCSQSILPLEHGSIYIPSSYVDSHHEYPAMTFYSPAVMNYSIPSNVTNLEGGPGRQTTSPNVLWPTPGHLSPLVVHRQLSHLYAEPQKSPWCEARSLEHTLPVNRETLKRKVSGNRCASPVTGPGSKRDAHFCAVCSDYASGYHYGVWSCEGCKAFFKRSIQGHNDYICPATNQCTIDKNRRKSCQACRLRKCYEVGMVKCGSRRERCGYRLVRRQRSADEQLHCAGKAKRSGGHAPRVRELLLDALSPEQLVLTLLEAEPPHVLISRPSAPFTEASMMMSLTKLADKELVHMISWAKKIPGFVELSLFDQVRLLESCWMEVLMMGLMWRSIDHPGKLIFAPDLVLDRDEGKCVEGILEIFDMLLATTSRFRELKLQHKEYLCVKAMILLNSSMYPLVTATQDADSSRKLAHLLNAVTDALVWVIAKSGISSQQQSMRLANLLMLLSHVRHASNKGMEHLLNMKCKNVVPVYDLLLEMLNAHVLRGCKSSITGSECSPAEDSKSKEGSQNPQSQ

Consider `COc1cc2c(c(OC)c1OC)C(c1ccc(SC)cc1)CC2=O` (stereo not drawn), for which the IC50 (in general, the midpoint of a concentration-inhibition curve) turned out to be 2.27 µM in the data set with HeLa [1], 2.91 µM in the data set with A2780 [2] and 1.82 µM with HCT-116 [3].
On to `COc1cc(OC)cc(C2CC(=O)c3cc(OC)c(OC)c(OC)c32)c1` (stereo not drawn), for which the IC50 with HeLa [1], with A2780 [2] and with HCT-116 [3] was above 100 µM throughout.
On to `COc1ccc([C@H]2NC(=O)c3cc(OC)c(OC)c(OC)c32)cc1`, for which, on Tubulin, 52 µM corresponded to half-maximal inhibition (IC50).
For the molecule `CCOc1ccc(C2CC(=O)c3cc(OC)c(OC)c(OC)c32)cc1` (stereo not drawn), the IC50 worked out at 0.48 µM in the data set with HeLa [1], 0.71 µM with A2780 [2] and 0.3 µM in the data set on HCT-116 [3].
Take `COc1ccc([C@@H]2C(=O)c3ccc(OC)cc3[C@H]2c2ccc(OCCN3CCC(C)CC3)cc2)cc1`: the IC50 was found to be 7.16 µM in the data set on MCF7, 3.94 µM in the data set on MDA-MB-231 and 0.51 µM on Estrogen receptor beta.
Turning to `CCOc1ccc(C2CC(=O)c3cc(OC)c(OC)c(OC)c32)cc1Br` (stereo not drawn), the values for the IC50 in the data set on HeLa [1], in the data set with A2780 [2] and in the data set on HCT-116 [3] were 4.99 µM, 4.11 µM and 8.99 µM, respectively.
`CCOc1ccc(C2CC(=O)c3cc(OC)c(OC)c(OC)c32)cc1F` (stereo not drawn): the “Ratio IC50” value in the data set with HCT-116 [4] amounted to 54; in the data set with HeLa [5] it was 42; with A2780 [6], 71. For the same molecule, the IC50 in the data set on SW480 was found to be 3.6 µM; in the data set on HeLa [1], 0.37 µM; with CT26 it was 5.24 µM; in the data set with A2780 [2] it was 0.51 µM; in the data set on HeLa [7], 0.66 µM; in the data set on HCT-116 [8], 0.35 µM. Also, the results for the IC50 in the data set on HCT-116 [3] and with A2780 [9] were 0.24 µM and 1.81 µM, respectively.
With `COc1ccc(C2CC(=O)c3cc(OC)c(OC)c(OC)c32)cc1F` (stereo not drawn), the IC50 is 0.6 µM in the data set on HeLa [1], 0.7 µM with A2780 [2] and 0.25 µM with HCT-116 [3].
On to `COc1ccc(C2CC(=O)c3cc(OC)c(OC)c(OC)c32)cc1I` (stereo not drawn), for which the IC50 in the data set with HeLa [1] was 7.22 µM; with A2780 [2], 7.58 µM; in the data set with HCT-116 [3], 8.5 µM.
As for `O=c1[nH]cc(F)c(=O)[nH]1` [FLUOROURACIL], the IC50 with SW480 was 37.5 µM; in the data set with HeLa [1] it was 15.7 µM; with CT26, 59.2 µM; with A2780 [2], 36.3 µM; in the data set on A2780 [9], 32.1 µM. Also, the IC50 at 1.5 h came to 5.11 µM in data set [10] and 0.43 µM in [11].
For the molecule `COc1ccc(C2CC(=O)c3cc(OC)c(OC)c(OC)c32)cc1` (stereo not drawn), the IC50 with HeLa [1] turned out to be 0.43 µM; in the data set on A2780 [2], 0.69 µM; in the data set with HCT-116 [3] it was 1.88 µM.
Turning to `CC[C@]1(O)C[C@H]2CN(CCc3c([nH]c4ccccc34)[C@@](C(=O)OC)(c3cc4c(cc3OC)N(C=O)[C@H]3[C@@](O)(C(=O)OC)[C@H](OC(C)=O)[C@]5(CC)C=CCN6CC[C@]43[C@@H]65)C2)C1`, the result in [12] was Active.
For the molecule `COc1cc(C2CC(=O)c3cc(OC)c(OC)c(OC)c32)cc(OC)c1OC` (stereo not drawn), the IC50 in the data set with HeLa [1], in the data set with A2780 [2] and in the data set on HCT-116 [3] was above 100 µM each time.
On to `COc1cc2c(c(OC)c1OC)-c1ccc(OC)c(=O)cc1[C@@H](NC(C)=O)CC2` [COLCHICINE], for which the results for the IC50 at 1.5 h in [10] and in data set [11] were 0.17 µM and 9.62 µM, respectively. Further, the IC50 in the data set on HeLa [1] was determined as 0.026 µM; in the data set with A2780 [2] it was 0.043 µM; with HCT-116 [3] it was 0.035 µM. In addition, in the data set with HCT-116 [13], the inhibition entry is “Active”.
In the case of `COc1ccc([C@H]2NC(=O)c3cc(OC)cc(OC)c32)cc1`, the IC50 against Tubulin is above 100 µM.
For `COc1cc2c(c(OC)c1OC)C(c1ccc(OC(C)C)cc1)CC2=O` (stereo not drawn), the IC50 is 6.87 µM in the data set with HeLa [1], 4.98 µM in the data set with A2780 [2] and 17.3 µM in the data set with HCT-116 [3].
The like results for `COc1cc(C2CC(=O)c3cc(OC)c(OC)c(OC)c32)ccc1Cl` (stereo not drawn) were, in that order, above 100 µM, above 100 µM and above 100 µM.
The like results for `CCOc1ccc(C2CC(=O)c3cc(OC)c(OC)c(OC)c32)cc1Cl` (stereo not drawn) were, in that order, 2.08 µM, 2.33 µM and 1.86 µM.
The like results for `COc1cc2c(c(OC)c1OC)C(c1ccc(OC(C)(C)C)cc1)CC2=O` (stereo not drawn) were, in that order, 9.15 µM, 12.6 µM and 15.4 µM.
As for `COc1ccc(C2CC(=O)c3cc(OC)c(OC)c(OC)c32)cc1[N+](=O)[O-]` (stereo not drawn), the IC50 turned out to be 2.22 µM with HeLa [1], 2.73 µM in the data set with A2780 [2] and 1.93 µM with HCT-116 [3].
For the molecule `COc1ccc(C2CC(=O)c3cc(OC)c(OC)c(OC)c32)cc1Cl` (stereo not drawn), the IC50 is 2.13 µM in the data set with HeLa [1], 2.52 µM in the data set with A2780 [2] and 0.31 µM with HCT-116 [3].
With `COc1ccc(C2CC(=O)c3cc(OC)c(OC)c(OC)c32)cc1OC` (stereo not drawn), the results for the IC50 with HeLa [1], in the data set on A2780 [2] and in the data set on HCT-116 [3] were 8.21 µM, 23.9 µM and 13.3 µM, respectively.
`CCOc1ccc([C@@H]2CC(=O)c3cc(OC)c(OC)c(OC)c32)cc1F`: the IC50 in the data set with SW480 turned out to be 4.52 µM; in the data set with CT26 it was 10.8 µM; with HeLa [7] it was 1.05 µM; with HCT-116 [8], 0.58 µM; in the data set on A2780 [9], 3.69 µM.
With `COc1ccc(C2CC(=O)c3cc(OC)c(OC)c(OC)c32)cc1Br` (stereo not drawn), the values for the IC50 in the data set with HeLa [1], in the data set with A2780 [2] and in the data set on HCT-116 [3] were 3.52 µM, 4.87 µM and 0.8 µM, respectively.
